Reference: ChEMBL document CHEMBL3885861, “Open TG-GATES”

Species: Rattus norvegicus
Assay: Open TG-GATES - Regimen: Daily Repeat
Format: toxicity, organism-based, Sprague-Dawley
Set-up: regimen Daily Repeat, gender Male, age 6 weeks
Conditions: in vivo, po, 300 mg/kg, route gavage, dose level High; for APTT / Bas / Eos / Fbg / Hb / Ht / Lym / MCH / MCHC / MCV / Mono / Neu / PT / Plat / RBC / Ret / WBC: tissue Blood; for KIDNEY_L / KIDNEY_R / KIDNEY_TOTAL: tissue Kidney; for LIVER: tissue Liver; for ALP / ALT / AST / BUN / CRE / DBIL / GLC / IP / K / LDH / Na / PL / RALB / TBIL / TC / TG / TP / gamma-GTP: tissue Plasma

Clc1ccccc1CN1CCc2sccc2C1 [TICLOPIDINE] showed a TERMINAL_BW (72 h, time 3 day) of 211.5 g, an APTT (72 h, time 3 day) of 25.4 s and a Bas (72 h, time 3 day) of 0.6%. It also gave an Eos (72 h, time 3 day) of 0.8%, a Fbg (72 h, time 3 day) of 212.6 mg/dL and a Hb (72 h, time 3 day) of 13.7 g/dL. It also gave a Ht (72 h, time 3 day) of 38.5%, a Lym (72 h, time 3 day) of 84% and an MCH (72 h, time 3 day) of 21.4 pg. For the same molecule, the MCHC (72 h, time 3 day) was 35.5%, the MCV (72 h, time 3 day) was 60.1 fL and the Mono (72 h, time 3 day) was 2.6%. The Neu (72 h, time 3 day) was 11.2%, the PT (72 h, time 3 day) was 12.4 s and the Plat (72 h, time 3 day) was 149.4 x10_4/uL. For the same molecule, the RBC (72 h, time 3 day) was 640.4 x10_4/ul, the Ret (72 h, time 3 day) was 3.5% and the WBC (72 h, time 3 day) was 84 x10_2/uL. For the same molecule, the KIDNEY_L (72 h, time 3 day) was 1.1 g, the KIDNEY_R (72 h, time 3 day) was 1 g and the KIDNEY_TOTAL (72 h, time 3 day) was 2.1 g. It also gave an LIVER (72 h, time 3 day) of 13 g, an ALP (72 h, time 3 day) of 1140 IU/L and an ALT (72 h, time 3 day) of 40.2 IU/L. The AST (72 h, time 3 day) was 68.6 IU/L, the BUN (72 h, time 3 day) was 13.8 mg/dL and the CRE (72 h, time 3 day) was 0.4 mg/dL. The DBIL (72 h, time 3 day) was 0.084 mg/dL, the GLC (72 h, time 3 day) was 175.4 mg/dL and the IP (72 h, time 3 day) was 7 mg/dL. The K (72 h, time 3 day) was 4 meq/L, the LDH (72 h, time 3 day) was 134.6 IU/L and the Na (72 h, time 3 day) was 142 meq/L. For the same molecule, the PL (72 h, time 3 day) was 163.2 mg/dL, the RALB (72 h, time 3 day) was 3.2 g/dL and the TBIL (72 h, time 3 day) was 0.1 mg/dL. The TC (72 h, time 3 day) was 93 mg/dL, the TG (72 h, time 3 day) was 55.6 mg/dL and the TP (72 h, time 3 day) was 5.2 g/dL. The gamma-GTP (72 h, time 3 day) was 1.6 IU/L, the TERMINAL_BW ([…], time 7 day) was 243.3 g and the TERMINAL_BW ([…], time 14 day) was 287.4 g. It also gave a TERMINAL_BW ([…], time 28 day) of 349.5 g, an APTT ([…], time 7 day) of 25.4 s and a Bas ([…], time 7 day) of 0.4%. For the same molecule, the Eos ([…], time 7 day) was 1%, the Fbg ([…], time 7 day) was 249.2 mg/dL and the Hb ([…], time 7 day) was 13.3 g/dL. The Ht ([…], time 7 day) was 37.1%, the Lym ([…], time 7 day) was 73.6% and the MCH ([…], time 7 day) was 20.6 pg. It also gave an MCHC ([…], time 7 day) of 35.8%, an MCV ([…], time 7 day) of 57.3 fL and a Mono ([…], time 7 day) of 3%. For the same molecule, the Neu ([…], time 7 day) was 20.8%, the PT ([…], time 7 day) was 12.5 s and the Plat ([…], time 7 day) was 141.7 x10_4/uL. The RBC ([…], time 7 day) was 646.4 x10_4/ul, the Ret ([…], time 7 day) was 4.9% and the WBC ([…], time 7 day) was 116.7 x10_2/uL. It also gave an APTT ([…], time 14 day) of 27.3 s, a Bas ([…], time 14 day) of 0.6% and an Eos ([…], time 14 day) of 1%. It also gave a Fbg ([…], time 14 day) of 229.6 mg/dL, a Hb ([…], time 14 day) of 14.1 g/dL and a Ht ([…], time 14 day) of 39.4%. It also gave a Lym ([…], time 14 day) of 82.4%, an MCH ([…], time 14 day) of 20.9 pg and an MCHC ([…], time 14 day) of 35.9%. It also gave an MCV ([…], time 14 day) of 58.1 fL, a Mono ([…], time 14 day) of 2.2% and a Neu ([…], time 14 day) of 12.8%. For the same molecule, the PT ([…], time 14 day) was 12.5 s, the Plat ([…], time 14 day) was 123 x10_4/uL and the RBC ([…], time 14 day) was 679 x10_4/ul. It also gave a Ret ([…], time 14 day) of 4.4%, a WBC ([…], time 14 day) of 118.3 x10_2/uL and an APTT ([…], time 28 day) of 22.4 s. It also gave a Bas ([…], time 28 day) of 0.8%, an Eos ([…], time 28 day) of 1.4% and a Fbg ([…], time 28 day) of 261.8 mg/dL. The Hb ([…], time 28 day) was 14.8 g/dL, the Ht ([…], time 28 day) was 39.8% and the Lym ([…], time 28 day) was 77.4%. It also gave an MCH ([…], time 28 day) of 19.7 pg, an MCHC ([…], time 28 day) of 37.1% and an MCV ([…], time 28 day) of 53.3 fL. The Mono ([…], time 28 day) was 2.4%, the Neu ([…], time 28 day) was 17.6% and the PT ([…], time 28 day) was 11.8 s. It also gave a Plat ([…], time 28 day) of 108.6 x10_4/uL, an RBC ([…], time 28 day) of 747.8 x10_4/ul and a Ret ([…], time 28 day) of 3.2%. The WBC ([…], time 28 day) was 125.4 x10_2/uL, the KIDNEY_L ([…], time 7 day) was 1.1 g and the KIDNEY_R ([…], time 7 day) was 1.1 g. It also gave a KIDNEY_TOTAL ([…], time 7 day) of 2.2 g, a KIDNEY_L ([…], time 14 day) of 1.3 g and a KIDNEY_R ([…], time 14 day) of 1.3 g. For the same molecule, the KIDNEY_TOTAL ([…], time 14 day) was 2.6 g, the KIDNEY_L ([…], time 28 day) was 1.5 g and the KIDNEY_R ([…], time 28 day) was 1.5 g. For the same molecule, the KIDNEY_TOTAL ([…], time 28 day) was 3.1 g, the LIVER ([…], time 7 day) was 14.1 g and the LIVER ([…], time 14 day) was 16.6 g. For the same molecule, the LIVER ([…], time 28 day) was 20 g, the ALP ([…], time 7 day) was 768.8 IU/L and the ALT ([…], time 7 day) was 49.8 IU/L. For the same molecule, the AST ([…], time 7 day) was 78 IU/L, the BUN ([…], time 7 day) was 15.8 mg/dL and the CRE ([…], time 7 day) was 0.4 mg/dL. The DBIL ([…], time 7 day) was 0.084 mg/dL, the GLC ([…], time 7 day) was 172.6 mg/dL and the IP ([…], time 7 day) was 7.3 mg/dL. It also gave a K ([…], time 7 day) of 4.1 meq/L, an LDH ([…], time 7 day) of 186 IU/L and a Na ([…], time 7 day) of 142.4 meq/L. It also gave a PL ([…], time 7 day) of 222.6 mg/dL, an RALB ([…], time 7 day) of 3.5 g/dL and a TBIL ([…], time 7 day) of 0.1 mg/dL. The TC ([…], time 7 day) was 126.8 mg/dL, the TG ([…], time 7 day) was 67.4 mg/dL and the TP ([…], time 7 day) was 6 g/dL. For the same molecule, the gamma-GTP ([…], time 7 day) was 1.8 IU/L, the ALP ([…], time 14 day) was 721.2 IU/L and the ALT ([…], time 14 day) was 35.2 IU/L. The AST ([…], time 14 day) was 62.4 IU/L, the BUN ([…], time 14 day) was 15.2 mg/dL and the CRE ([…], time 14 day) was 0.4 mg/dL. It also gave a DBIL ([…], time 14 day) of 0.08 mg/dL, a GLC ([…], time 14 day) of 201.4 mg/dL and an IP ([…], time 14 day) of 8.4 mg/dL. For the same molecule, the K ([…], time 14 day) was 3.9 meq/L, the LDH ([…], time 14 day) was 141 IU/L and the Na ([…], time 14 day) was 142.2 meq/L. The PL ([…], time 14 day) was 182.8 mg/dL, the RALB ([…], time 14 day) was 3.4 g/dL and the TBIL ([…], time 14 day) was 0.1 mg/dL. The TC ([…], time 14 day) was 99.2 mg/dL, the TG ([…], time 14 day) was 53.6 mg/dL and the TP ([…], time 14 day) was 6 g/dL. The gamma-GTP ([…], time 14 day) was 2.4 IU/L, the ALP ([…], time 28 day) was 578.4 IU/L and the ALT ([…], time 28 day) was 47 IU/L. The AST ([…], time 28 day) was 67.6 IU/L, the BUN ([…], time 28 day) was 16.8 mg/dL and the CRE ([…], time 28 day) was 0.5 mg/dL. For the same molecule, the DBIL ([…], time 28 day) was 0.086 mg/dL, the GLC ([…], time 28 day) was 197 mg/dL and the IP ([…], time 28 day) was 7.9 mg/dL. For the same molecule, the K ([…], time 28 day) was 4 meq/L, the LDH ([…], time 28 day) was 196.6 IU/L and the Na ([…], time 28 day) was 141.6 meq/L. The PL ([…], time 28 day) was 206 mg/dL, the RALB ([…], time 28 day) was 3.7 g/dL and the TBIL ([…], time 28 day) was 0.1 mg/dL. The TC ([…], time 28 day) was 116.4 mg/dL, the TG ([…], time 28 day) was 62.4 mg/dL and the TP ([…], time 28 day) was 6.5 g/dL. It also gave a gamma-GTP ([…], time 28 day) of 2.6 IU/L.
